The NIST ThermoML archive (doi:10.1021/je034251+)
± gives the expanded uncertainty stated by the source.

Settings: for mass density: isochoric method

COC [dimethyl ether]
Settings	Critical temperature [K]	mass density [kg/m3]
301.82 K, Liquid	–	654.54 ± 0.33
320.08 K, Liquid	–	623.9 ± 0.33
330.63 K, Liquid	–	604.34 ± 0.33
339.47 K, Liquid	–	585.82 ± 0.33
347.34 K, Liquid	–	567.13 ± 0.32
359 K, Liquid	–	540.45 ± 0.32
365.69 K, Liquid	–	522.25 ± 0.32
366.69 K, Gas	–	66.75 ± 0.2
372.15 K, Liquid	–	503.13 ± 0.32
378.81 K, Liquid	–	479.19 ± 0.32
380.95 K, Gas	–	96.42 ± 0.2
384.5 K, Liquid	–	454.66 ± 0.32
390.86 K, Gas	–	130.05 ± 0.21
393.65 K, Liquid	–	405.87 ± 0.32
396.06 K, Gas	–	161.3 ± 0.22
398.21 K, Liquid	–	361.58 ± 0.34
399.34 K, Gas	–	203.55 ± 0.28
400.32 K, Liquid	–	299.12 ± 0.43
400.35 K, Gas	–	253.84 ± 0.54
400.35 K, Liquid	–	285.01 ± 0.47
400.36 K, Gas	–	264.02 ± 0.63
400.36 K, Liquid	–	278.92 ± 0.49
400.38 K, Liquid	–	276.19 ± 0.5
Liquid, Visual observation in an unstirred cell	400.38 ± 0.062	–

Settings	Critical density [kg/m3]
Liquid	272 ± 2
